“And” between values parts separate entries of the source, which are not always exact repeats. Equal values may be shown once.
Test system: sperm-egg fusion
Assay: sperm-egg fusion inhibition assay
Format: cell-based, guinea pig
Set-up: inhibits sperm-egg fusion / % Inhibition: concentration or dose not given beside the values
Protocol: The fusion inhibition assay was carried out as follows. Eggs were collected from guinea pig ovaries. The eggs were incubated in tissue culture medium overnight. The zona pellucida was removed with a mixture of proteases. The zona pellucida free eggs were incubated in culture media with peptide at a specified concentration for 30 minutes.
Sperm collected from the epididymis of male guinea pigs was capacitated by incubation and acrosome reacted as described by Fleming and Yanagimachi (Gamete Res. 4: 253-273 (1981)) and added to the eggs and incubated for 15 minutes. The eggs were then transferred to a sperm free culture medium and incubated for an additional 1 hour and 45 minutes. The eggs were then fixed and stained as described by Primakoff et al. (J. Cell. Biol. 104: 141 (1987)). The total number of swollen sperm heads were then counted. Swollen sperm heads are an indication that the sperm and egg have fused.
On the basis of these observations, several indices are calculated. The fertilization index (F.I.) is determined by dividing the total number of swollen heads by the total number of eggs. The fertilization rate (F.R.) is the percentage of eggs fertilized. The percent inhibition is determined by dividing the fertilization index of the experimental peptide by the fertilization index of the control peptide.

CSTDEC was tested, and the F.R. (Table 4, TDE peptides compared with no peptide control) was 8% and 11%, the “% Inhibition” value (Table 4, relative to F.I. of no peptide control of the same experiment) was 89% and 95% and the “% Inhibition” value (Table 5, relative to F.I. of control peptide GRGES of the same experiment) was 90% and 98%. For the same substance, the “inhibition of sperm-egg fusion (in words)” value (compared to no peptide or control peptide) was “strongly inhibited” and the inhibits sperm-egg fusion (when the fertilization index is near the normal level of 1 sperm per egg, compared with no peptide (Table 4)) was 89%.
